Test results published in patent US12691070B2, “Cationic lipids and preparation method thereof” (RiboX Therapeutics HK Limited, priority 2023, dated 2026).

Experiments:
[1] = LNP size and polydispersity index (PDI) by dynamic light scattering; assay type: physicochemical; conditions: LNP with cirRNA (SEQ ID NO: 1); for Size: in nm (unit assumed)
In short: (§1)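 Dynamic light scattering and zeta potential measurements were run on PBS-dialyzed LNPs, which had been formed by microfluidic mixing at 12 ml/min with final lipid at 1.5 mM to 6 mM. RNA content and percent encapsulation were determined by Ribogreen with and without Triton X-100.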

Hep G2 cells [2] = assay: In vitro toxicity (CellTiter-Glo cell viability), Hep G2; assay type: cell-based; conditions: cirRNA (SEQ ID NO: 1) LNPs; Hep G2 cells;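 also: percent of untreated cells luminescence signal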
In short: (§2)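 Luminescent ATP read-out (CellTiter-Glo) gives the viability value, taken 72 h after cells were exposed to RNA-loaded lipid nanoparticles at 1 μg/mL.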

[3] = LNP zeta potential (Zetasizer); assay type: physicochemical; conditions: LNP with cirRNA (SEQ ID NO: 1)
In short: as §1

[4] = RNA encapsulation efficacy by Quant-IT Ribogreen kit; assay type: physicochemical; conditions: LNP with cirRNA (SEQ ID NO: 1)
In short: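 Ribogreen read-out: encapsulation = 100% − (signal of intact RNA-LNPs / signal with Triton X-100). Particles: ionizable lipid:DSPC:Chol:DMG-PEG2000 50:10:38.5:1.5, ionizable lipid:ribonucleotide 15 or 6, final lipid 1.5–6 mM, PBS-dialyzed.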

RAW 264.7 cells [5] = assay: In vitro toxicity (CellTiter-Glo cell viability), RAW 264.7; assay type: cell-based; conditions: cirRNA (SEQ ID NO: 1) LNPs; RAW 264.7 cells;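 also: percent of untreated cells luminescence signal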
In short: as §2

BALB/C mice = assay: In vivo expression, whole-body luminescence (IVIS); conditions: cirRNA (SEQ ID NO: 1) LNPs, BALB/C mice
Method: 6-8 week old, female BALB/C mice were injected with 0.05 mg*kg-1 of RNA-LNPs encoding for firefly-luciferase by intravenous injection. At 6 hours post injection, animals were intraperitoneally injected with 15 mg/ml of Luciferin substrate and whole-body luminescence was determined by a bioluminescent in vivo imaging system (IVIS).

RAW 264.7 cells [6] = assay: In vitro expression of firefly-luciferase, RAW 264.7; assay type: cell-based; conditions: cirRNA (SEQ ID NO: 1) LNPs; firefly-luciferase luminescence; RAW 264.7 cells
In short: (§3)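 Both cell lines receive RNA-LNPs carrying firefly-luciferase RNA at 100 ng/mL. Lysis follows washing at 72 h post-transfection, and luciferase activity is then quantified on a luminometer using a commercial luciferase assay reagent.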

Hep G2 cells [7] = assay: In vitro expression of firefly-luciferase, Hep G2; assay type: cell-based; conditions: cirRNA (SEQ ID NO: 1) LNPs; firefly-luciferase luminescence; Hep G2 cells
In short: as §3

| PDI [1] | Size [1] | Zeta (mV) [3] [mV] | Encapsulation Efficiency % [4] [%] | SMILES | In vitro Viability HepG2 (Hep G2 cells [2]) [%] | In vitro Viability RAW (RAW 264.7 cells [5]) [%] | In vivo Expression (Whole Body) (BALB/C mice) | In vitro Expression RAW (RAW 264.7 cells [6]) | In vitro Expression HepG2 (Hep G2 cells [7]) |
| --- | --- | --- | --- | --- | --- | --- | --- | --- | --- |
| 0.2243 | 97.77 | 7.113 | 94 | CCCCCCCC/C=C\CCCCCCCCN(CCCCCCCCOC(=O)C(CCCCCC)CCCCCCCC)CCOC(=O)NCCN(C)C (stereo not drawn) [Lipid 211] | 90 | 91 | 1.09E+07 | 2.36E+05 | 1.14E+07 |
| 0.1853 | 65.77 | −3.175 | 93 | CCCCCCCC/C=C\CCCCCCCCN(CCCCCCCCOC(=O)C(CCCCCC)CCCCCCCC)CCOC(=O)NCc1ncc[nH]1 (stereo not drawn) [Lipid 212] | 99 | 82 | 4.68E+06 | 1.44E+05 | 6.37E+04 |
| 0.2952 | 114.2 | 13.22 | 94 | CCCCCCCC/C=C\CCCCCCCCN(CCCCCCCCOC(=O)C(CCCCCC)CCCCCCCC)CCOC(=O)NCCCN(CC)CC (stereo not drawn) [Lipid 213] | 74 | 90 | 2.11E+06 | 2.06E+04 | 6.40E+06 |
| 0.4093 | 75.92 | 11.61 | 96 | CCCCCCCC/C=C\CCCCCCCCN(CCCCCCCCOC(=O)C(CCCCCC)CCCCCCCC)CCOC(=O)NCCCN(C)C (stereo not drawn) [Lipid 216] | 76 | 75 | 1.34E+06 | 3.31E+05 | 1.59E+07 |
| 0.1439 | 60.05 | 1.061 | 94 | CCCCCCCC/C=C\CCCCCCCCN(CCCCCCCCOC(=O)C(CCCCCC)CCCCCCCC)CCOC(=O)NCCCn1ccnc1 (stereo not drawn) [Lipid 217] | 82 | 90 | 7.35E+06 | 8.05E+03 | 2.45E+04 |
| 0.3124 | 96.36 | 5.94 | 96 | CCCCCCCC/C=C\CCCCCCCCN(CCCCCCCCOC(=O)C(CCCCCC)CCCCCCCC)CCOC(=O)NCCN1CCCC1 (stereo not drawn) [Lipid 218] | 71 | 62 | 7.53E+07 | 9.16E+04 | 5.25E+06 |
| 0.1125 | 76.57 | 0.7668 | 93 | CCCCCCCC/C=C\CCCCCCCCN(CCCCCCCCOC(=O)C(CCCCCC)CCCCCCCC)CCOC(=O)NCCN1CCCCC1 (stereo not drawn) [Lipid 219] | 58 | 80 | 1.34E+08 | 3.53E+04 | 7.09E+05 |

Further lines, the compound ahead of its results:

| SMILES | PDI [1] | Size [1] | Zeta (mV) [3] [mV] | Encapsulation Efficiency % [4] [%] | In vitro Viability HepG2 (Hep G2 cells [2]) [%] | In vitro Viability RAW (RAW 264.7 cells [5]) [%] | In vivo Expression (Whole Body) (BALB/C mice) | In vitro Expression RAW (RAW 264.7 cells [6]) | In vitro Expression HepG2 (Hep G2 cells [7]) |
| --- | --- | --- | --- | --- | --- | --- | --- | --- | --- |
| CCCCCCCC/C=C\CCCCCCCCN(CCCCCCCCOC(=O)C(CCCCCC)CCCCCCCC)CCOC(=O)NCCN1CCN(C)CC1 (stereo not drawn) [Lipid 214] | 0.304 | 76.43 | 5.906 | 96 | 83 | 87 | 1.18E+06 | 1.20E+05 | 3.88E+06 |
| CCCCCCCC/C=C\CCCCCCCCN(CCCCCCCCOC(=O)C(CCCCCC)CCCCCCCC)CCOC(=O)NCCN1CCOCC1 (stereo not drawn) [Lipid 215] | 0.05226 | 62.22 | −3.755 | 96 | 85 | 86 | 1.61E+07 | 7.31E+03 | 5.62E+04 |
| CCCCCCCCCCCOC(=O)CCCCCN(CCCCCCCCOC(=O)C(CCCCCC)CCCCCCCC)CCOC(=O)NCCN(C)C (stereo not drawn) [Lipid 220] | 0.304 | 112.7 | 10.78 | 96 | 89 | 98 | 1.45E+07 | 1.52E+04 | 3.55E+06 |
| CCCCCCCCCCCOC(=O)CCCCCN(CCCCCCCCOC(=O)C(CCCCCC)CCCCCCCC)CCOC(=O)NCc1ncc[nH]1 (stereo not drawn) [Lipid 221] | 0.1852 | 65.7 | −1.368 | 91 | 87 | 83 | 1.79E+07 | 5.03E+05 | 2.82E+05 |
| CCCCCCCCCCCOC(=O)CCCCCN(CCCCCCCCOC(=O)C(CCCCCC)CCCCCCCC)CCOC(=O)NCCN1CCN(C)CC1 (stereo not drawn) [Lipid 222] | 0.4109 | 98.73 | 26.75 | 97 | 42 | 87 | 1.59E+06 | 8.85E+04 | 1.63E+06 |
| CCCCCCCCCCCOC(=O)CCCCCN(CCCCCCCCOC(=O)C(CCCCCC)CCCCCCCC)CCOC(=O)NCCN1CCOCC1 (stereo not drawn) [Lipid 223] | 0.08837 | 60.01 | −2.046 | 92 | 92 | 76 | 5.53E+06 | 4.76E+04 | 6.42E+04 |
| CCCCCCCCCCCOC(=O)CCCCCN(CCCCCCCCOC(=O)C(CCCCCC)CCCCCCCC)CCOC(=O)NCCCN(C)C (stereo not drawn) [Lipid 224] | 0.4284 | 86.14 | 27.23 | 97 | 90 | 73 | 5.05E+05 | 6.89E+03 | 3.58E+05 |
| CCCCCCCCCCCOC(=O)CCCCCN(CCCCCCCCOC(=O)C(CCCCCC)CCCCCCCC)CCOC(=O)NCCN1CCCC1 (stereo not drawn) [Lipid 226] | 0.298 | 115.7 | 14.86 | 95 | 91 | 108 | 2.20E+07 | 9.79E+03 | 7.79E+05 |
| CCCCCCCCCCCOC(=O)CCCCCN(CCCCCCCCOC(=O)C(CCCCCC)CCCCCCCC)CCOC(=O)NCCN1CCCCC1 (stereo not drawn) [Lipid 227] | 0.1088 | 79.97 | 4.217 | 92 | 82 | 83 | 9.21E+07 | 1.99E+05 | 4.71E+05 |
| CCCCC/C=C\CCOC(=O)CCCCCN(CCCCCC(=O)OCC(CCCCCCCC)CCCCCCCCCC)CCOC(=O)NCCN1CCCC1 (stereo not drawn) [Lipid 244] | 0.3577 | 87.4 | −0.164 | 96 | 94 | 90 | 3.95E+07 | 9.56E+02 | 3.62E+06 |
| CCCCC/C=C\C/C=C\CCCCCCCCN(CCCCCCCC(=O)OC(CCCCCCCC)CCCCCCCC)CCCOC(=O)NCCCN(CC)CC [Lipid 272] | 0.3463 | 74.91 | 5.434 | 95 | 97 | 121 | 6.35E+06 | 1.34E+06 | 1.01E+07 |
| CCCCC/C=C\C/C=C\CCCCCCCCN(CCCCCCCC(=O)OC(CCCCCCCC)CCCCCCCC)CCCOC(=O)NCCN1CCN(C)CC1 [Lipid 273] | 0.257 | 88.34 | 1.543 | 95 | 93 | 121 | 5.16E+06 | 1.35E+06 | 6.48E+06 |
